From patent US20140212495A1, “NANOPARTICULATE COMPOSITIONS OF TUBULIN INHIBITOR COMPOUNDS” (Ziopharm Oncology, Inc., priority 2004, published 2014)
Like-named read-outs stand apart in the source and are kept apart here.

Columns and labels:
[1] = system: a variety of malignancies (e.g., prostate, brain, breast, pancreas, and colon); settings: cited from earlier work
[2] = cited from earlier work
tubulin = settings: cited from earlier work
[3] = 4-week subchronic toxicity study in dogs, D-24851 plasma pharmacokinetics; format: in vivo; settings: for AUC / Cmax / Tmax / half-life / AUC(0-t): dog, plasma, iv; for AUC(0-t): read-out: AUC0-tlast,md
Method: Blood samples from all animals were taken at the following times: 1 h, 2 h, 4 h, 8 h, 16 h, 24 h, 36 h and 48 hours after application. The concentration levels of D-24851 were measured using HPLC.

[4] = system: cell cycle progression at metaphase; settings: cited from earlier work

For `O=C(Nc1ccncc1)C(=O)c1cn(Cc2ccc(Cl)cc2)c2ccccc12` [Composition D-24851, N-(Pyridin-4-yl)-[1-(4-chlorobenzyl)-indol-3-yl]glyoxylic acid amide], the “antitumor activity in vitro” value [1] is listed as “significant antitumor activity”, the neurological symptoms ([2]; animal experiments) is listed as “No neurological symptoms” and the in-vivo antineoplastic efficacy ([2]; animals) is listed as “high in-vivo antineoplastic efficacy”. The tolerability ([2]; preclinical experiments in rodents) was “very well tolerated at highly effective doses”, the “overlap of binding site with tubulin-binding sites of vincristine or colchicine” value (tubulin) was “does not appear to overlap” and the effect on microtubules (tubulin; in tumor cells, as well as in a cell-free system) was “destabilizes microtubules”. For the same compound, the “dose dependence of plasma concentrations” value ([3]; Composition 4 i.v. 2.61, 5.62 and 12.1 mg/kg) was “depend from the dose”, the “plasma profiles day 1 versus day 27” value ([3]; Composition 4 i.v., 4 weeks) was “of similar magnitude at day 1 and day 27 dosings” and the CL/f ([3]; Day 1, Composition 4 i.v. 5.62 mg/kg, Males, Meanar n=3) was 38.1 mL/min/kg. It also gave a CL/f ([3]; Day 1, Composition 4 i.v. 12.1 mg/kg, Females, Meanar n=3) of 31.1 mL/min/kg, a CL/f ([3]; Day 1, Composition 4 i.v. 12.1 mg/kg, Males, Meanar n=3) of 29.5 mL/min/kg and a CL/f ([3]; Day 27, Composition 4 i.v. 5.62 mg/kg, Males, Meanar n=3) of 38.1 mL/min/kg. For the same compound, the CL/f ([3]; Day 27, Composition 4 i.v. 12.1 mg/kg, Females, Meanar n=3) was 31.1 mL/min/kg, the CL/f ([3]; Day 27, Composition 4 i.v. 12.1 mg/kg, Males, Meanar n=3) was 29.5 mL/min/kg and the AUC ([3]; female, 2.61 mg/kg, Day 1, Composition 4 i.v. 2.61 mg/kg, Females, Meanar n=3, read-out: AUCτ, sd) was 3400 ng·h/mL. It also gave a Cmax ([3]; female, 2.61 mg/kg, Day 1, Composition 4 i.v. 2.61 mg/kg, Females, Meanar n=3, read-out: Cmax, sd) of 210 ng/mL, a Tmax ([3]; female, 2.61 mg/kg, Day 1, Composition 4 i.v. 2.61 mg/kg, Females, Meanar n=3, read-out: tmax, sd) of 1.67 h and a half-life ([3]; female, 2.61 mg/kg, Day 1, Composition 4 i.v. 2.61 mg/kg, Females, only for orientating, unsufficient curve fitting) of 41 h. The AUC ([3]; female, 2.61 mg/kg, Day 27, Composition 4 i.v. 2.61 mg/kg, Females, Meanar n=3, read-out: AUCτ, md) was 1410 ng·h/mL, the Cmax ([3]; female, 2.61 mg/kg, Day 27, Composition 4 i.v. 2.61 mg/kg, Females, Meanar n=3, read-out: Cmax, md) was 148 ng/mL and the Tmax ([3]; female, 2.61 mg/kg, Day 27, Composition 4 i.v. 2.61 mg/kg, Females, Meanar n=3, read-out: tmax, md) was 2.33 h. The half-life ([3]; female, 2.61 mg/kg, Day 27, Composition 4 i.v. 2.61 mg/kg, Females, only for orientating, insufficient curve fitting) was 28.3 h, the AUC(0-t) ([3]; female, 2.61 mg/kg) was 1100 ng·h/mL and the AUC ([3]; female, 5.62 mg/kg, Day 1, Composition 4 i.v. 5.62 mg/kg, Females, Meanar n=3, read-out: AUCτ, sd) was 3540 ng·h/mL. The Cmax ([3]; female, 5.62 mg/kg, Day 1, Composition 4 i.v. 5.62 mg/kg, Females, Meanar n=3, read-out: Cmax, sd) was 279 ng/mL, the half-life ([3]; female, 5.62 mg/kg, Day 1, Composition 4 i.v. 5.62 mg/kg, Females, only for orientating, unsufficient curve fitting) was 20 h and the half-life ([3]; female, 5.62 mg/kg, Day 27, Composition 4 i.v. 5.62 mg/kg, Females, Meanar n=3) was 14.8 h. The AUC ([3]; female, 5.62 mg/kg, Day 27, Composition 4 i.v. 5.62 mg/kg, Females, Meanar n=3, read-out: AUCτ, md) was 2960 ng·h/mL, the Cmax ([3]; female, 5.62 mg/kg, Day 27, Composition 4 i.v. 5.62 mg/kg, Females, Meanar n=3, read-out: Cmax, md) was 315 ng/mL and the Tmax ([3]; female, 5.62 mg/kg, Day 27, Composition 4 i.v. 5.62 mg/kg, Females, Meanar n=3, read-out: tmax, md) was 2.33 h. For the same compound, the AUC(0-t) ([3]; female, 5.62 mg/kg) was 2740 ng·h/mL, the Tmax ([3]; female, 5.62 mg/kg, read-out: tmax, sd) was 2 h and the half-life ([3]; female, 12.1 mg/kg, Day 1, Composition 4 i.v. 12.1 mg/kg, Females, Meanar n=3) was 11.6 h. The AUC ([3]; female, 12.1 mg/kg, Day 1, Composition 4 i.v. 12.1 mg/kg, Females, Meanar n=3, read-out: AUCsd) was 8250 ng·h/mL, the AUC ([3]; female, 12.1 mg/kg, Day 1, Composition 4 i.v. 12.1 mg/kg, Females, Meanar n=3, read-out: AUCτ, sd) was 7670 ng·h/mL and the Cmax ([3]; female, 12.1 mg/kg, Day 1, Composition 4 i.v. 12.1 mg/kg, Females, Meanar n=3, read-out: Cmax, sd) was 860 ng/mL. It also gave a Tmax ([3]; female, 12.1 mg/kg, Day 1, Composition 4 i.v. 12.1 mg/kg, Females, Meanar n=3, read-out: tmax, sd) of 2.33 h, a half-life ([3]; female, 12.1 mg/kg, Day 27, Composition 4 i.v. 12.1 mg/kg, Females, Meanar n=3) of 24.2 h and an AUC ([3]; female, 12.1 mg/kg, Day 27, Composition 4 i.v. 12.1 mg/kg, Females, Meanar n=3, read-out: AUCτ, md) of 4850 ng·h/mL. The Cmax ([3]; female, 12.1 mg/kg, Day 27, Composition 4 i.v. 12.1 mg/kg, Females, Meanar n=3, read-out: Cmax, md) was 329 ng/mL, the Tmax ([3]; female, 12.1 mg/kg, Day 27, Composition 4 i.v. 12.1 mg/kg, Females, Meanar n=3, read-out: tmax, md) was 2.67 h and the AUC(0-t) ([3]; female, 12.1 mg/kg) was 4850 ng·h/mL. For the same compound, the Cmax ([3]; male, 2.61 mg/kg, Day 1, Composition 4 i.v. 2.61 mg/kg, Males, Meanar n=3, read-out: Cmax, sd) was 147 ng/mL, the Tmax ([3]; male, 2.61 mg/kg, Day 1, Composition 4 i.v. 2.61 mg/kg, Males, Meanar n=3, read-out: tmax, sd) was 1.67 h and the half-life ([3]; male, 2.61 mg/kg, Day 27, Composition 4 i.v. 2.61 mg/kg, Males, Meanar n=3) was 40.7 h. It also gave an AUC ([3]; male, 2.61 mg/kg, Day 27, Composition 4 i.v. 2.61 mg/kg, Males, Meanar n=3, read-out: AUCτ, md) of 1740 ng·h/mL, a Cmax ([3]; male, 2.61 mg/kg, Day 27, Composition 4 i.v. 2.61 mg/kg, Males, Meanar n=3, read-out: Cmax, md) of 224 ng/mL and a Tmax ([3]; male, 2.61 mg/kg, Day 27, Composition 4 i.v. 2.61 mg/kg, Males, Meanar n=3, read-out: tmax, md) of 1.33 h. It also gave an AUC(0-t) ([3]; male, 2.61 mg/kg) of 1450 ng·h/mL, a half-life ([3]; male, 5.62 mg/kg, Day 1, Composition 4 i.v. 5.62 mg/kg, Males, Meanar n=3) of 6.63 h and an AUC ([3]; male, 5.62 mg/kg, Day 1, Composition 4 i.v. 5.62 mg/kg, Males, Meanar n=3, read-out: AUCsd) of 2470 ng·h/mL. For the same compound, the AUC ([3]; male, 5.62 mg/kg, Day 1, Composition 4 i.v. 5.62 mg/kg, Males, Meanar n=3, read-out: AUCτ, sd) was 2590 ng·h/mL, the Cmax ([3]; male, 5.62 mg/kg, Day 1, Composition 4 i.v. 5.62 mg/kg, Males, Meanar n=3, read-out: Cmax, sd) was 241 ng/mL and the Cmax ([3]; male, 5.62 mg/kg, Day 27, Composition 4 i.v. 5.62 mg/kg, Males, Meanar n=3, read-out: Cmax, md) was 186 ng/mL. For the same compound, the Tmax ([3]; male, 5.62 mg/kg, Day 27, Composition 4 i.v. 5.62 mg/kg, Males, Meanar n=3, read-out: tmax, md) was 2.33 h, the half-life ([3]; male, 5.62 mg/kg, Day 27, Composition 4 i.v. 5.62 mg/kg, Males, marked ** (footnote not given)) was 5.1 h and the AUC(0-t) ([3]; male, 5.62 mg/kg) was 1320 ng·h/mL. The AUC ([3]; male, 5.62 mg/kg, read-out: AUCτ, md) was 1850 ng·h/mL, the Tmax ([3]; male, 5.62 mg/kg, read-out: tmax, sd) was 2 h and the half-life ([3]; male, 12.1 mg/kg, Day 1, Composition 4 i.v. 12.1 mg/kg, Males, Meanar n=3) was 8.74 h. The AUC ([3]; male, 12.1 mg/kg, Day 1, Composition 4 i.v. 12.1 mg/kg, Males, Meanar n=3, read-out: AUCsd) was 6980 ng·h/mL, the AUC ([3]; male, 12.1 mg/kg, Day 1, Composition 4 i.v. 12.1 mg/kg, Males, Meanar n=3, read-out: AUCτ, sd) was 6870 ng·h/mL and the Cmax ([3]; male, 12.1 mg/kg, Day 1, Composition 4 i.v. 12.1 mg/kg, Males, Meanar n=3, read-out: Cmax, sd) was 592 ng/mL. The Tmax ([3]; male, 12.1 mg/kg, Day 1, Composition 4 i.v. 12.1 mg/kg, Males, Meanar n=3, read-out: tmax, sd) was 2.67 h, the half-life ([3]; male, 12.1 mg/kg, Day 27, Composition 4 i.v. 12.1 mg/kg, Males, Meanar n=3) was 11.9 h and the AUC ([3]; male, 12.1 mg/kg, Day 27, Composition 4 i.v. 12.1 mg/kg, Males, Meanar n=3, read-out: AUCτ, md) was 5620 ng·h/mL. The Cmax ([3]; male, 12.1 mg/kg, Day 27, Composition 4 i.v. 12.1 mg/kg, Males, Meanar n=3, read-out: Cmax, md) was 435 ng/mL, the Tmax ([3]; male, 12.1 mg/kg, Day 27, Composition 4 i.v. 12.1 mg/kg, Males, Meanar n=3, read-out: tmax, md) was 2.67 h and the AUC(0-t) ([3]; male, 12.1 mg/kg) was 5560 ng·h/mL. For the same compound, the “effect on cell cycle progression” value [4] was “selectively blocks cell cycle progression at metaphase”.
